Test results published in US6747045B2, “(Benzodioxan, benzofuran or benzopyran) derivatives having fundic relaxation properties” (Janssen Pharmaceutica N.V., priority 1997, dated 2004).

Tests used:
fundus of the stomach = assay: Gastric tone measured by an electronic barostat in conscious dogs; assay type: in vivo; conditions: conscious female beagle dogs; 0.63 mg/kg s.c.; 1 hour after administration of the test compound
Procedure: C.1. Gastric Tone Measured by an Electronic Barostat in Conscious Dogs
Gastric tone cannot be measured by manometric methods. Therefore an electronic barostat was used. This allows the study of the physiological pattern and regulation of gastric tone in conscious dogs and the influence of test-compounds on this tone.
The barostat consists of an air injection system which is connected by a double-lumen 14-French polyvinyl tube to an ultrathin flaccid polyethylene bag (maximal volume: ±700 ml). Variations in gastric tone were measured by recording changes in the volume of air within an intragastric bag, maintained at a constant pressure, or at varying pressure levels. The barostat maintains a constant pressure (preselected) within a flaccid air-filled bag introduced into the stomach, changing the volume of air within the bag by an electronic feedback system.
Thus, the barostat measures gastric motor activity (contraction or relaxation) as changes in intragastric volume (decrease or increase resp.) at a constant intragastric pressure. The barostat consists of a strain gauge linked by an electronic relay to an air injection-aspiration system. Both the strain gauge and the injection system are connected by means of double-lumen polyvinyl tube to an ultrathin polyethylene bag. A dial in the barostat allows selection of the pressure level to be maintained within the intragastric bag.
Female beagle dogs, weighing 7-17 kg, were trained to stand quietly in Pavlov frames. They were implanted with a gastric cannula under general anaesthesia and aseptic precautions. After a median laparotomy, an incision was made through the gastric wall in longitudinal direction between the greater and the lesser curve, 2 cm above the nerves of Latarjet. The cannula was secured to the gastric wall by means of a double purse string suture and brought out via a stub wound at the left quadrant of the hypochondrium. Dogs were allowed a recovery period of two weeks.
At the beginning of the experiment, the cannula was opened in order to remove any gastric juice or food remnants. If necessary, the stomach was cleansed with 40 to 50 ml lukewarm water. The ultrathin bag of the barostat was positioned into the fundus of the stomach through the gastric cannula. In order to ensure easy unfolding of the intragastric bag during the experiment, a volume of 150-200 ml was injected into the bag by raising the pressure to maximally 14 mm Hg (about 1.87 kPa) very briefly. This procedure was repeated twice. A stabilisation period of 1 hour was allowed. […]

basilar arteries = assay: Vasoconstrictive activity on basilar artery; parameters: species or system pigs; conditions: Sus scrofa; pig basilar artery segments, organ bath; response relative to serotonin 3×10^−7 M; estimated from three preparations; read-out: ED50-value (concentration causing 50% of the constrictive response obtained with serotonin)
Procedure: C.2 Vasoconstrictive Activity on Basilar Artery
Segments of basilar arteries taken from pigs (anaesthetised with sodium pentobarbital) were mounted for recording of isometric tension in organ baths. The preparations were bathed in Krebs-Henseleit solution. The solution was kept at 37° C. and gassed with a mixture of 95% O2-5% CO2. The preparations were stretched until a stable basal tensions of 2 grams was obtained.
The preparations were made to constrict with serotonin (3×10^−7 M). The response to the addition of serotonin was measured and subsequently the serotonin was washed away. This procedure was repeated until stable responses were obtained. Subsequently the test compound was administered to the organ bath and the constriction of the preparation was measured. This constrictive response was expressed as a percentage of the response to serotonin as measured previously.

Compound | EC50 (basilar arteries) [nM] | melting point [°C] | % effect (percentual effect on relaxation of the fundus) (fundus of the stomach) [%]
O=C(O)C(=O)O.O=C1NCCCN1CCCNCC1CCc2ccccc2O1 (racemic) [Compound 1, (±)-1-[3-[[(3,4-dihydro-2H-1-benzopyran-2-yl)methyl]amino]-propyl]-tetrahydro-2(1H)-pyrimidinone ethanedioate(1:1)] | > 1000 | 226.3 | 23.0
O=C1NCCCN1CCCN(Cc1ccccc1)CC1CCc2ccccc2O1 (racemic) [Compound 13, (±)-1-[3-[[(3,4-dihydro-2H-1-benzopyran-2-yl)methyl](phenylmethyl)amino]propyl]-tetrahydro-2(1H)-pyrimidinone] | > 1000 | 94.7 | 0.4
O=C(O)C(=O)O.O=C1NCCCN1CCCNC[C@H]1CCc2ccccc2O1 [Compound 3, (R)-1-[3-[[(3,4-dihydro-2H-1-benzopyran-2-yl)methyl]amino]propyl]-tetrahydro-2(1H)-pyrimidinone ethanedioate (1:1)] | > 1000 | – | 36.2
(RR,SS)-1-[1-[2-(3,4-dihydro-2H-1-benzopyran-2-yl)-2-hydroxyethyl]-4-piperidinyl]-2-imidazolidinone [Compound 20] | – | – | 9.5

Second part, led by results:

EC50 (basilar arteries) [nM] | melting point [°C] | Compound | % effect (percentual effect on relaxation of the fundus) (fundus of the stomach) [%]
> 1000 | 217.6 | O=C(O)C(=O)O.S=C1NCCCN1CCCNCC1CCc2ccccc2O1 (racemic) [Compound 14, (±)-1-[3-[[(3,4-dihydro-2H-1-benzopyran-2-yl)-methyl]amino]propyl]tetrahydro-2(1H)-pyrimidinethione ethanedioate(1:1)] | –
590 | 177.5 | N#CN=C1NCCCN1CCCNCC1CCc2ccccc2O1 (racemic) [Compound 21, (±)-[1-[3-[[(3,4-dihydro-2H-1-benzopyran-2-yl)-methyl]-amino]propyl]hexahydro-2-pyrimidinylidene]cyanamide ethanedioate (1:1)] | –
> 1000 | – | NC(=O)Nc1nccn1C1CCN(CC2CCc3ccccc3O2)CC1 (racemic) [Compound 66, (±)-[1-[1-[(3,4-dihydro-2H-1-benzopyran-2-yl)methyl]-4-piperidinyl]-1H-imidazol-2-yl]urea] | –
> 1000 | – | N#CNc1nccn1C1CCN(CC2CCc3ccccc3O2)CC1 (stereo not drawn) [Compound 59, [1-[1-[(3,4-dihydro-2H-1-benzopyran-2-yl)methyl]-4-piperidinyl]1H-imidazol-2-yl]cyanamide] | –
